Reference: patent US12616751B2, “Photosensitizing antibody-fluorophore conjugates” (The USA, as represented by the Secretary, Department of …, priority 2010, dated 2026)
Several values for one entry are separate records, joined by “and”; a condition that tells them apart may be missing. Equal values may be shown once.

How the values were obtained:
A431 tumors = experiment: In vivo FLT imaging after PIT; design: species or system mice
Procedure: Reagents. […] All other chemicals used were of reagent grade. […] Then the mixture was purified with a Sephadex G50 column (PD-10; GE Healthcare). The protein concentrations were determined with Coomassie Plus protein assay kit (Pierce Biotechnology) by measuring light absorption at 595 nm (8453 Value System; Agilent Technologies). […] The number of IR700 per antibody was approximately 4 for the 1:4.5 reaction conditions. The addition of 0.4% SDS to the sample dissociated the fluorophores from each other, effectively causing dequenching. Quenching efficiency (QE) for a particular conjugation is defined as the fluorescence intensity with SDS divided by fluorescence intensity without SDS. […] Pan-1R700 was kept at 4° C. in the refrigerator as a stock solution. Fluorescence lifetime measurements. FLT experiments were performed with the eXplore OptixTm-MX2 system (ART Advanced Research Technologies, Inc.) (Hutchinson et al., Biophys J 68:1574-82, 1995; Ma et al., Appl Opt 46:1650-7, 2007). A fixed pulsed laser diode was used as an excitation source at a wavelength of 670 nm. Region of interest (ROI) measurements with a spot size of 1.5 mm were selected at the image plane. […] Lifetime analysis was performed by using the ART OptiView (ART Advanced Research Technologies, Inc.). Lifetime values and lifetime mapping were calculated to fit fluorescence temporal point-spread functions (TPSFs) as single-exponential models with the Fit TPSF tool. Photoimmunotherapy for in vitro and in vivo models. PIT was performed with a red light-emitting diode (LED) light at 680 to 700 nm wavelength (Tech-LED, Marubeni America Co.) (Mitsunaga et al., Bioconjug Chem. 23:604-9, 2012). Power densities were measured with an optical power meter (PM 100, Thorlabs). Determination of FLT for Pan-IR700. Samples of Pan-IR700 at concentrations of 2.5, 5, 20, 40 pg/mL were prepared by dilution with PBS. The fluorescence intensities and lifetimes of each sample were determined using the Optix MX2 system at room temperature within a 1.7 ml centrifuge tube. To investigate the effect of PIT using Pan-1R700, the FLT of each sample at the concentration of 50 pg/mL was measured after irradiating the samples at a PIT dose of 0, 2, 4, 8, 15, 30 J/cm2. Cell line. […] The cell line was grown in RPMI 1640 (Life Technologies) containing 10% fetal bovine serum (Life Technologies), 0.03% L-glutamine, 100 units/mL penicillin, and 100 μg/mL streptomycin in 5% CO2 at 37° C. Cell pellet FLT studies A431. Cells were plated on […] cell culture flasks and incubated until confluent. Then Pan-IR700 conjugate was added to the media (1 pg/mL), and cells were incubated for 24 h at 37° C. Upon completion of incubation, cells were removed from the flasks, and centrifuged to obtain pellets. The resulting cell pellets were washed with PBS×3 and placed in 1.7 mL centrifuge tubes. The fluorescence intensities and lifetimes of each sample were then obtained. […] After that, these pellets were gently washed with PBS×1 and fluorescence intensity and lifetime images were obtained. To detect the antigen specific localization of IR700 and to confirm the morphological changes of A431 cells before and after PIT, fluorescence microscopy was performed using Olympus BX61 microscope (Olympus America) equipped with the following filters: a 590-650 nm excitation filter, a 665-740 nm band pass emission filter. […]

A431 tumor = experiment: In vivo fluorescence imaging of Pan-IR700 in A431 tumors; design: species or system mice
Procedure: To confirm antigen specific localization of Pan-IR700, 1×10^6 of 3T3/HER2 cells (HER1 negative) were injected subcutaneously in the right dorsum at the same time of A431 cells injection. […] Regions of interest (ROI) for both tumor and background were placed for equivalent sized areas containing the same number of pixels. Tumor to background ratio (TBR) was calculated using the following formula: TBR=((mean tumor intensity)−(mean background intensity))/((mean non-tumor intensity)−(mean background intensity)).

## Pan-IR700: Panitumumab (anti-human EGFR IgG2 MAb) conjugated to IR700; about 3 to 4 IR700 per antibody
A431 tumors; 10 J/cm^2, 48 hours after PIT
  FLT shortening compared with untreated control: 7.7%
A431 tumors; 30 J/cm^2
  FLT immediately after PIT, compared with no treatment controls: 61.5+/−5.1% and 61.5 ± 15.1%
  FLT immediately after PIT, of untreated tumors in the same mouse: 61.5%+/−5.05
A431 tumors; 50 J/cm^2
  FLT immediately after PIT, compared with no treatment controls: 69.1+/−10.9%
  FLT immediately after PIT, of untreated tumors in the same mouse: 69.0%+110.92
A431 tumor; 1 day after injection
  fluorescence intensity of tumor, 300 μg versus 50 μg injection: more than 3 times
A431 tumor; mouse, in vivo
  TBR, 300 μg versus 50 μg injection: lower
  fluorescence intensity in tumor over time: decreased gradually over days
  other localization of IR700 (biodistribution): no other specific localization of IR700 except for bladder accumulation on day 1
  tumor localization (in vivo fluorescence imaging): localized to the A431 tumor
